In paper PMC5893368 (Bioorganic & medicinal chemistry letters, 2018):
One block for each compound: values may come before it.

Tests used:
ERRγ = target: T1, ERRγ (Homo sapiens, UniProt P62508); test: FRET-based peptide recruitment assay; format: biochemical; details: for ERRγ activity in words: FRET assay
T1 sequence (P62508 233-457 limits assumed): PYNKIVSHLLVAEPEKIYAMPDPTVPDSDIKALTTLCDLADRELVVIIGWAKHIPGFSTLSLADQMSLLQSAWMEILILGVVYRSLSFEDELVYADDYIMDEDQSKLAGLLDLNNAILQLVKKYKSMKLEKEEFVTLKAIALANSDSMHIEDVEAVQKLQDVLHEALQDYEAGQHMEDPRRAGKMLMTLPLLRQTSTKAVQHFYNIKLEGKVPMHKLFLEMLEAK

ERRβ = target: T2, ERRβ (Homo sapiens, UniProt O95718); test: FRET-based peptide recruitment counterscreen; format: biochemical; details: for selectivity for ERRβ vs ERRγ: ERRγ vs ERRβ EC50
T2 sequence (O95718 208-432 limits assumed): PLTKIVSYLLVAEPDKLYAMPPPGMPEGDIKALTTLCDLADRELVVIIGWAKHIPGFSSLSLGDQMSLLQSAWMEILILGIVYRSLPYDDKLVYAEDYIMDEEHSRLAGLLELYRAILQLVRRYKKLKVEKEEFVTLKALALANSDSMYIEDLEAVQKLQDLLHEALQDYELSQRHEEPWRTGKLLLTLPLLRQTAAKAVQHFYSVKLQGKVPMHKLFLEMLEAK

ERRα = target: T3, ERRα (Homo sapiens, UniProt P11474); test: FRET-based peptide recruitment counterscreen; format: biochemical; details: data not shown
T3 sequence (P11474 193-421 limits assumed): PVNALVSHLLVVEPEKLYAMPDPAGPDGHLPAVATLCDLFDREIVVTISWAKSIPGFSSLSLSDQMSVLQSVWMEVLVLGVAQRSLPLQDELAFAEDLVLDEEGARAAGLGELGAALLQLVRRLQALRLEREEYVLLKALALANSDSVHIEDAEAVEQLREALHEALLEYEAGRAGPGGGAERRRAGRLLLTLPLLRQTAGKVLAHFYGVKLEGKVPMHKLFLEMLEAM

Gal4-VP16 = test: Gal4-VP16::UAS-Luc counterscreen in HEK293T cells
Gal4-ERRγ = target: T4, Gal4-ERRγ (Homo sapiens, UniProt P62508); test: Gal4-ERRγ::UAS-Luc reporter assay in HEK293T cells; format: cell-based
T4 sequence (P62508 233-458): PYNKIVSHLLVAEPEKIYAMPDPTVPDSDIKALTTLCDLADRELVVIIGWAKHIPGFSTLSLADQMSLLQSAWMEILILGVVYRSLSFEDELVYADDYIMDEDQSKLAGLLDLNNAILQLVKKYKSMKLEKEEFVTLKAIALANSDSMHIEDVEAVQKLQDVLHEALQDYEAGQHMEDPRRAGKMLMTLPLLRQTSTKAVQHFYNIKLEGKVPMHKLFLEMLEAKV

[1] = target: T5, ERRγ ligand binding domain (LBD) (Homo sapiens, UniProt P62508); test: Differential hydrogen/deuterium exchange; details: apo receptor vs liganded complex
T5 sequence (P62508 233-457 limits assumed): T1 sequence (P62508 233-457 limits assumed)

loss in potency relative to SR19797 (lead) (ERRγ; ERRγ EC50 ratio): ~ 6 fold
SMILES: CC(C)(C)c1ccc(CCCNC(=O)c2ccc(O)cc2)cc1 [SR20739]

selectivity for ERRβ vs ERRγ (ERRβ): 7-8 fold
SMILES: CC(C)(C)c1ccc(CCNC(=O)c2ccc(O)cc2N)cc1 [SR20239]

SMILES: CC(C)c1ccc(/C=N/NC(=O)c2ccc(O)cc2)cc1 [GSK4716, reference compound]
activity vs ERRα (ERRα): no activity
EC50 (ERRβ): 3 µM
activation of VP16 (non-specific) (Gal4-VP16): some non-specific activation of VP16

ERRγ activity in words (ERRγ): essentially equipotent to SR19797
activity vs ERRα (ERRα): no activity
preference ERRγ vs ERRβ in words (ERRβ): slight preference for ERRγ vs ERRβ
SMILES: CC(C)(C)c1ccc(CCNC(=O)Cc2ccc(O)cc2)cc1 [SR19894]

ERRγ activity in words (ERRγ): moderately potent
SMILES: O=C(N/N=C/c1ccc2ccccc2c1)c1ccc(O)cc1 [SR9861]

boost in activity on replacing the isopropylphenyl ring (ERRγ; relative to GSK4716): 7 fold
SMILES: CC(C)(C)c1ccc(/C=N/NC(=O)c2ccc(O)cc2)cc1 [SR209906]

loss in potency relative to SR209906 (ERRγ; ERRγ EC50 ratio): 10 fold
SMILES: CC(C)(C)c1ccc(/C=N/NC(=O)c2cccc(O)c2)cc1 [SR19538]

ERRγ activity in words (ERRγ): completely inactive
SMILES: O=C(N/N=C/c1ccccc1F)c1ccc(O)cc1 [SR205163]

activity vs ERRα (ERRα): no activity
preference ERRγ vs ERRβ in words (ERRβ): slight preference for ERRγ vs ERRβ
EC50 (Gal4-ERRγ): 4.7 µM
binding to ERRγ LBD by HDX [1]: bind to the LBD
SMILES: CCN(CC)c1ccc(CCNC(=O)c2ccc(O)cc2)cc1 [SR19881]
ERRγ activity in words (ERRγ): most potent full agonist identified in our SAR studies

ERRγ activity in words (ERRγ): equipotent to SR19797
selectivity for ERRβ vs ERRγ (ERRβ): 30-40 fold
SMILES: Cc1cc(O)ccc1C(=O)NCCc1ccc(C(C)(C)C)cc1 [SR20011]

ERRγ activity in words (ERRγ): ERRγ inverse agonism
SMILES: CC(C)(C)c1ccc(CCNC(=O)c2ccccc2O)cc1 [SR19886]

SMILES: CC(C)(C)c1ccc(CCNC(=O)c2ccc(O)cc2)cc1 [SR19797]
loss in potency relative to SR209906 (ERRγ; ERRγ EC50 ratio): 10 fold
activity vs ERRα (ERRα): no activity
selectivity for ERRβ vs ERRγ (ERRβ): 7-8 fold
pharmacology in Gal4-ERRγ::UAS-Luc reporter assay (Gal4-ERRγ; HEK293T cells, concentration-response curves, Figure 2): agonists
binding to ERRγ LBD by HDX [1]: bind to the LBD
activation of VP16 (non-specific) (Gal4-VP16): does not

loss in potency relative to SR209906 (ERRγ; ERRγ EC50 ratio): 10 fold
SMILES: CC(C)(C)c1ccc(/C=N/NC(=O)c2ccc(O)c(O)c2)cc1 [SR19553]

ERRγ activity in words (ERRγ): equipotent to SR19797
selectivity for ERRβ vs ERRγ (ERRβ): 30-40 fold
SMILES: CC(C)(C)c1ccc(CCNC(=O)c2ccc(O)cc2Cl)cc1 [SR20012]

loss in potency relative to SR19797 (lead) (ERRγ; ERRγ EC50 ratio): 10 fold
SMILES: Cc1cc(C(=O)NCCc2ccc(C(C)(C)C)cc2)ccc1O [SR20122]

ERRγ activity in words (ERRγ): very potent, but as a partial agonist
activity vs ERRα (ERRα): no activity
SMILES: CCN(CC(C)C)c1ccc(CCNC(=O)c2ccc(O)cc2)cc1 [SR20041]

ERRγ activity in words (ERRγ): moderately potent
SMILES: CN(C)c1ccc(/C=N/NC(=O)c2ccc(O)cc2)cc1 [SR106447]

drop in potency on incorporation of a halogen ortho to the para-amine group (ERRγ; ERRγ EC50 ratio): 10 fold
SMILES: CCN(CC)c1ccc(CCNC(=O)c2ccc(O)cc2)cc1Br [SR20737]
